From ChEMBL document CHEMBL3797038, “Synthesis and pharmacological evaluation of new biphenylic derivatives as CB2 receptor ligands” (Eur J Med Chem, 2016)
Active and inactive are the calls of the source. No cut-off for these calls is given here.

Legend:
[1] = biological target: T1, Cannabinoid receptor 2 (Homo sapiens, UniProt P34972); experiment: Neutral antagonist activity at human CB2 receptor expressed in CHO cell membranes after 90 mins by [35S]GTPgammaS binding assay; format: functional
[2] = biological target: Cannabinoid receptor 1 (Homo sapiens, UniProt P21554); experiment: Displacement of [3H]CP55940 from human CB1 receptor expressed in CHO cell membranes after 2 hrs
Chain of Cannabinoid receptor 1 (P21554 whole entry): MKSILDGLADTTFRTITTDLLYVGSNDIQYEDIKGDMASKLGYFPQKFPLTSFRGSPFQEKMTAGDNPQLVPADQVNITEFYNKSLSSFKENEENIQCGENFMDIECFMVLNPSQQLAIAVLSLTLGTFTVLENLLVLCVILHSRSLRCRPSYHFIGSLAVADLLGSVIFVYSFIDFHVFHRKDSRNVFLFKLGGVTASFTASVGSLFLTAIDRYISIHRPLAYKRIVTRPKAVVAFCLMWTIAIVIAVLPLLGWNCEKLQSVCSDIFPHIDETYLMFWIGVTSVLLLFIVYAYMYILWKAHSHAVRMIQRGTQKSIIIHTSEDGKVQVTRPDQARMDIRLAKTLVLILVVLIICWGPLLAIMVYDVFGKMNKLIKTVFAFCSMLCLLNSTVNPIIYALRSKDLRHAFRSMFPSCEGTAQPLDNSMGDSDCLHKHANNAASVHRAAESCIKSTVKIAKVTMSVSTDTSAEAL

[3] = biological target: T1, Cannabinoid receptor 2; experiment: Displacement of [3H]CP55940 from human CB2 receptor expressed in CHO cell membranes after 2 hrs
[4] = biological target: T1, Cannabinoid receptor 2; experiment: Agonist activity at human CB2 receptor expressed in CHO cell membranes after 90 mins by [35S]GTPgammaS binding assay; format: functional
[5] = biological target: T1, Cannabinoid receptor 2; experiment: Competitive antagonist activity at human CB2 receptor expressed in CHO cell membranes assessed as inhibition of N-cycloheptyl-4-methoxy-5-methylbiphenyl-3-carboxamide-mediated receptor stimulation by [35S]GTPgammaS binding assay; format: functional
[6] = biological target: T1, Cannabinoid receptor 2; experiment: Inhibition of N-cycloheptyl-4-methoxy-5-methylbiphenyl-3-carboxamide maximal response at human CB2 receptor expressed in CHO cell membranes by [35S]GTPgammaS binding assay; format: functional
[7] = test system: CHO; experiment: Selectivity index, ratio of Ki for human CB1 receptor expressed in CHO cell membranes to Ki for human CB2 receptor expressed in CHO cell membranes; format: cell-based
[8] = biological target: T1, Cannabinoid receptor 2; experiment: Protean agonist activity at human CB2 receptor expressed in CHO cell membranes after 90 mins by [35S]GTPgammaS binding assay; format: functional
[9] = biological target: T1, Cannabinoid receptor 2; experiment: Inverse agonist activity at human CB2 receptor expressed in CHO cell membranes after 90 mins by [35S]GTPgammaS binding assay; format: functional
[10] = biological target: T1, Cannabinoid receptor 2; experiment: Antagonist activity at human CB2 receptor expressed in CHO cell membranes assessed as inhibition of HU-210 mediated-stimulation at 1 to 10 uM by [35S]GTPgammaS binding assay; format: functional
[11] = biological target: T1, Cannabinoid receptor 2; experiment: Neutral antagonist activity at human CB2 receptor expressed in CHO cell membranes up to 10 uM after 90 mins by [35S]GTPgammaS binding assay; format: functional

T1 sequence (P34972 whole entry): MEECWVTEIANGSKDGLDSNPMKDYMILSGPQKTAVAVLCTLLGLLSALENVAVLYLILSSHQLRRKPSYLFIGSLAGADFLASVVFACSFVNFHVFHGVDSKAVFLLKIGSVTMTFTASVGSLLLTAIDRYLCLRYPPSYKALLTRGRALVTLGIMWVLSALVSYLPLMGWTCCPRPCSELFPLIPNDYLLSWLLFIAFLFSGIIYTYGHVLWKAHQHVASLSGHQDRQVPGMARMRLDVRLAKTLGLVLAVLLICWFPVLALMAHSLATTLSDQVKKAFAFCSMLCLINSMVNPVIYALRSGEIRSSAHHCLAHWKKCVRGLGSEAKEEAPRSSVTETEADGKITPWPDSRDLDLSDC

Row | Structure (SMILES) | Ki [2] [nM] | Ki [3] [nM] | Selectivity Index [7] | also measured
1 | C=CCc1ccc(O)c(-c2ccc(OCCCC)c(CC=C)c2)c1 | 615 | 103 |  | Neutral antagonist activity [1]: Active
2 | C=CCc1ccc(OC)c(-c2ccc(OC)c(CC=C)c2)c1 |  | 1380 |  | Activity [4]: Active
3 | COc1ccc(-c2cc(Cc3ccc(F)cc3)c(OC)c(C(=O)N[C@H]3CC[C@@H](C)CC3)c2)cc1 | 380 | 196 | 2 | inhibition [5]: Dose-dependent effect; inhibition [6]: inactive
4 | COc1c(C)cc(-c2ccc(F)cc2)cc1C(=O)NC1CCCCCC1 |  |  |  | Activity [4]: Active
5 | CCCCc1cc(-c2ccccc2)cc(C(=O)N[C@H]2CC[C@H](C)CC2)c1OC | 3610 | 2390 |  | 
6 | CCCCc1cc(-c2ccccc2)cc(C(=O)N[C@H]2CC[C@@H](C)CC2)c1OC | 549 | 1260 |  | 
7 | C=CCc1ccc(OCCCC)c(-c2ccc(O)c(CC=C)c2)c1 |  |  |  | Activity [8]: Active
8 | COc1c(Cc2ccccc2)cc(-c2ccccc2)cc1C(=O)NC1CCCCCC1 | 1560 | 594 | 2.6 | Activity [9]: Active
9 | COc1c(Cc2ccc(F)cc2)cc(-c2ccccc2)cc1C(=O)NC1CCCCCC1 | 904 | 84.1 | 10.7 | Activity [9]: Active
10 | C=CCc1cc(NC(C)=O)c(O)c(-c2ccc(OC)c(CC=C)c2)c1 |  | > 10000 |  | 
11 | COc1c(Cc2ccc(F)cc2)cc(-c2ccc(F)cc2)cc1C(=O)NC1CCCCCC1 | 2830 | 265 | 10.7 | Activity [9]: Active
12 | CCCCc1cc(-c2ccc(F)cc2)cc(C(=O)N[C@H]2CC[C@H](C)CC2)c1OC | ≥ 10000 | 1760 | > 5.8 | 
13 | COc1c(Cc2ccc(F)cc2)cc(-c2ccccc2)cc1C(=O)N[C@H]1CC[C@H](C)CC1 | 3090 | 2620 | 1.2 | 
14 | COc1ccc(-c2cc(C)c(OC)c(C(=O)NC3CCCCCC3)c2)cc1 | 16500 | 2740 | 6.1 | Neutral antagonist activity [1]: Active
15 | C=CCc1cc(NC(=O)CCCCCCCCCCCCCCCCC)c(O)c(-c2ccc(OC)c(CC=C)c2)c1 |  | > 10000 |  | 
16 | COc1c(Cc2ccc(F)cc2)cc(-c2ccc(F)cc2)cc1C(=O)N[C@H]1CC[C@@H](C)CC1 | 1070 | 337 | 3.2 | 

Row | Structure (SMILES) | Ki [2] [nM] | Ki [3] [nM] | Selectivity Index [7] | also measured
17 | COc1c(Cc2ccc(F)cc2)cc(-c2ccccc2)cc1C(=O)N[C@H]1CC[C@@H](C)CC1 | 826 | 1110 | 1.3 | 
18 | CCCCc1cc(-c2ccc(F)cc2)cc(C(=O)N[C@H]2CC[C@@H](C)CC2)c1OC | 2520 | 1410 | 1.8 | 
19 | COc1c(Cc2ccccc2)cc(-c2ccccc2)cc1C(=O)N[C@H]1CC[C@@H](C)CC1 |  | 2670 |  | 
20 | COc1c(Cc2ccc(F)cc2)cc(-c2ccc(F)cc2)cc1C(=O)N[C@H]1CC[C@H](C)CC1 | 1850 | 1090 | 1.7 | 
21 | C=CCc1ccc(O)c(-c2ccc(O)c(CC=C)c2)c1 |  |  |  | Activity [9]: Active; Neutral antagonist activity [1]: Active
22 | CCCCc1cc(-c2ccc(F)cc2)cc(C(=O)NC2CCCCCC2)c1OC | 6110 | 166 | 36.8 | Activity [9]: Active
23 | COc1ccc(-c2cc(Cc3ccc(F)cc3)c(OC)c(C(=O)N[C@H]3CC[C@H](C)CC3)c2)cc1 | 1170 | 811 | 1.4 | 
24 | C=CCc1ccc(OC)c(-c2ccc(O)c(CC=C)c2)c1 |  |  |  | Activity [4]: Active
25 | COc1c(C)cc(-c2ccccc2)cc1C(=O)NC1CCCCCC1 | 656 | 148 | 4.5 | Activity [4]: Active
26 | C=CCc1cc(NC(=O)CCCCCCCCCCC)c(O)c(-c2ccc(OC)c(CC=C)c2)c1 |  | > 10000 |  | 
27 | COc1ccc(-c2cc(Cc3ccc(F)cc3)c(OC)c(C(=O)NC3CCCCCC3)c2)cc1 | ≥ 10000 | ≥ 10000 |  | Neutral antagonist activity [1]: Active
28 | CCCCc1cc(-c2ccc(OC)cc2)cc(C(=O)NC2CCCCCC2)c1OC |  | 249 |  | inhibition [10]: Active; Neutral antagonist activity [1]: Active; inhibition [11]: Active
29 | C=CCc1ccc(OCCCC)c(-c2ccc(OCCCC)c(CC=C)c2)c1 |  | 1780 |  | Neutral antagonist activity [1]: Active
30 | C=CCc1ccc(O)c(-c2ccc(OC)c(CC=C)c2)c1 |  |  |  | Activity [4]: Active
31 | COc1c(Cc2ccccc2)cc(-c2ccccc2)cc1C(=O)N[C@H]1CC[C@H](C)CC1 | 2500 | 4810 |  | 
32 | CCCCc1cc(-c2ccccc2)cc(C(=O)NC2CCCCCC2)c1OC | 1860 | 352 | 5.3 | Activity [9]: Active
